Values after ≈ are worked out from the molar mass of the structure shown. Read-outs that look alike come from different tables or passages of the source.
Experiments:
Assay in all cases: In vitro MIC susceptibility testing, broth microdilution
[1] = test system: C. auris B 11211; assay type: cell-based, Candida auris; conditions: for MIC: Candidozyma auris, read-out: MIC C. auris B11211
Method: In vitro MIC susceptibility testing. Turbinmicin analogs of the present disclosure were tested for antifungal activity against four Candida isolates, C. albicans K-1, C. tropicalis 98-234, C. auris B 11211, and C. glabrata 4720, and MICs were determined using a broth microdilution method for yeasts. A turbinmicin analog was dissolved in DMSO, serially diluted to 10 concentrations (0.125-64 μg/mL), and tested in a 96-well plate in RPMI medium. […] Six untreated media controls were included on each plate. The plates were incubated at 33° C. for 24 hours. The MICs were determined as the lowest concentration that inhibited visible growth. The MICs were read at 24.

[2] = test system: C. tropicalis 98-234; assay type: cell-based, Candida tropicalis; conditions: for MIC: read-out: MIC C. tropicalis 98-234
Method: (§1) In vitro MIC susceptibility testing. […] Six untreated media controls were included on each plate. The plates were incubated at 33° C. for 24 hours. The MICs were determined as the lowest concentration that inhibited visible growth. The MICs were read at 24.

[3] = test system: C. glabrata 4720; assay type: cell-based, Candida glabrata; conditions: for MIC: read-out: MIC C. glabrata 4720
Method: as §1

[4] = test system: C. albicans K-1; assay type: cell-based, Candida albicans; conditions: for MIC: Candida albicans, read-out: MIC C. albicans K-1
Method: as §1

[5] = Candida tropicalis, 98234, 24 h
[6] = Nakaseomyces glabratus, 4720, 24 h
[7] = B11211, multidrug-resistant clinical isolate, RPMI medium, 33° C., 24 hours, lowest concentration that inhibited visible growth
[8] = Candida tropicalis, 98234, RPMI medium, 33° C., 24 hours, lowest concentration that inhibited visible growth
[9] = Nakaseomyces glabratus, 4720, RPMI medium, 33° C., 24 hours, lowest concentration that inhibited visible growth
[10] = K1, RPMI medium, 33° C., 24 hours, lowest concentration that inhibited visible growth
[11] = RPMI medium, 33° C., 24 hours, lowest concentration that inhibited visible growth

Compound | MIC ([1]; B11211, 24 h) | MIC [2, 5] | MIC [3, 6] | MIC ([4]; K1, 24 h) | further results
C/C=C/C=C/C=C/C(=O)O[C@@H]1C=CC[C@H]2C(=NCCCNC)c3c(O)c4c5c(c3O[C@H]12)OCO[C@@H]5C[C@@H]1C(=O)c2cc(C)[nH]c(=O)c2C(=O)[C@]41O [Compound T18] | 0.38 mg/L (≈ 0.545 µM) | 0.75 mg/L (≈ 1.07 µM) | 0.5 mg/L (≈ 0.717 µM) | 1 mg/L (≈ 1.43 µM) | –
C/C=C/C=C/C=C/C(=O)O[C@@H]1C=CC[C@H]2C(=NCCN3CCCC3)c3c(O)c4c5c(c3O[C@H]12)OCO[C@@H]5C[C@@H]1C(=O)c2cc(C)[nH]c(=O)c2C(=O)[C@]41O [Compound T19] | 0.25 mg/L (≈ 0.345 µM) | 0.38 mg/L (≈ 0.525 µM) | 0.5 mg/L (≈ 0.691 µM) | 0.5 mg/L (≈ 0.691 µM) | –
C/C=C/C=C/C=C/C(=O)O[C@@H]1C=CC[C@H]2/C(=N/CCN3CCCCC3)c3c(O)c4c5c(c3O[C@H]12)OCO[C@@H]5C[C@@H]1C(=O)c2cc(C)[nH]c(=O)c2C(=O)[C@]41O [Compound T21] | 0.06 mg/L (≈ 0.0813 µM) | 0.25 mg/L (≈ 0.339 µM) | 0.25 mg/L (≈ 0.339 µM) | 0.25 mg/L (≈ 0.339 µM) | –
C/C=C/C=C/C=C/C(=O)O[C@@H]1C=CC[C@H]2C(=NCCCN3CCOCC3)c3c(O)c4c5c(c3O[C@H]12)OCO[C@@H]5C[C@@H]1C(=O)c2cc(C)[nH]c(=O)c2C(=O)[C@]41O [Compound T23] | – | – | – | – | MIC [1, 7]: 0.63 mg/L (≈ 0.836 µM); MIC [2, 8]: 1 mg/L (≈ 1.33 µM); MIC [3, 9]: 1 mg/L (≈ 1.33 µM); MIC [4, 10]: 1 mg/L (≈ 1.33 µM)
C/C=C/C=C/C=C/C(=O)O[C@@H]1C=CC[C@H]2C(=NCCN3CCS(=O)(=O)CC3)c3c(O)c4c5c(c3O[C@H]12)OCO[C@@H]5C[C@@H]1C(=O)c2cc(C)[nH]c(=O)c2C(=O)[C@]41O [Compound T24] | 0.28 mg/L (≈ 0.355 µM) | 1 mg/L (≈ 1.27 µM) | 1 mg/L (≈ 1.27 µM) | 0.75 mg/L (≈ 0.952 µM) | –
C/C=C/C=C/C=C/C(=O)O[C@@H]1C=CC[C@H]2/C(=N\C(C)CN3CCOCC3)c3c(O)c4c5c(c3O[C@H]12)OCO[C@@H]5C[C@@H]1C(=O)c2cc(C)[nH]c(=O)c2C(=O)[C@]41O (stereo partly drawn) [Compound T25] | 0.25 mg/L (≈ 0.332 µM) | 1 mg/L (≈ 1.33 µM) | 0.5 mg/L (≈ 0.663 µM) | 0.5 mg/L (≈ 0.663 µM) | –
C/C=C/C=C/C=C/C(=O)O[C@@H]1C=CC[C@H]2C(=NCCN3CCN(C)CC3)c3c(O)c4c5c(c3O[C@H]12)OCO[C@@H]5C[C@@H]1C(=O)c2cc(C)[nH]c(=O)c2C(=O)[C@]41O [Compound T26] | – | – | – | – | MIC [1, 7]: 0.03 mg/L (≈ 0.0399 µM); MIC [2, 8]: 0.05 mg/L (≈ 0.0664 µM); MIC [3, 9]: 0.5 mg/L (≈ 0.664 µM); MIC [4, 10]: 0.5 mg/L (≈ 0.664 µM)
C/C=C/C=C/C=C/C(=O)O[C@@H]1C=CC[C@H]2C(=NCCCCCN3CCOCC3)c3c(O)c4c5c(c3O[C@H]12)OCO[C@@H]5C[C@@H]1C(=O)c2cc(C)[nH]c(=O)c2C(=O)[C@]41O [Compound T27] | 0.5 mg/L (≈ 0.64 µM) | 2 mg/L (≈ 2.56 µM) | 1 mg/L (≈ 1.28 µM) | 1 mg/L (≈ 1.28 µM) | –
Turbinmicin [reference compound] | – | – | – | – | MIC C. auris B11211 ([1]; multidrug-resistant clinical isolate, RPMI medium, 33° C., 24 hours, lowest concentration that inhibited visible growth): 0.05 mg/L; MIC C. tropicalis 98-234 [2, 11]: 0.25 mg/L; MIC C. glabrata 4720 [3, 11]: 0.13 mg/L; MIC C. albicans K-1 [4, 11]: 0.06 mg/L
